{"source": "patent US20090105250A1", "about": "“COMPOUNDS AND COMPOSITIONS AS PROTEIN KINASE INHIBITORS” (IRM LLC, priority 2005, published 2009)", "type_in_all_cases": "cell-based", "key": {"Flt-3": {"molecular_target": "T1, Flt-3 (Homo sapiens, UniProt P36888, cells depend on it, form not given)", "T1 sequence (P36888 1-993)": "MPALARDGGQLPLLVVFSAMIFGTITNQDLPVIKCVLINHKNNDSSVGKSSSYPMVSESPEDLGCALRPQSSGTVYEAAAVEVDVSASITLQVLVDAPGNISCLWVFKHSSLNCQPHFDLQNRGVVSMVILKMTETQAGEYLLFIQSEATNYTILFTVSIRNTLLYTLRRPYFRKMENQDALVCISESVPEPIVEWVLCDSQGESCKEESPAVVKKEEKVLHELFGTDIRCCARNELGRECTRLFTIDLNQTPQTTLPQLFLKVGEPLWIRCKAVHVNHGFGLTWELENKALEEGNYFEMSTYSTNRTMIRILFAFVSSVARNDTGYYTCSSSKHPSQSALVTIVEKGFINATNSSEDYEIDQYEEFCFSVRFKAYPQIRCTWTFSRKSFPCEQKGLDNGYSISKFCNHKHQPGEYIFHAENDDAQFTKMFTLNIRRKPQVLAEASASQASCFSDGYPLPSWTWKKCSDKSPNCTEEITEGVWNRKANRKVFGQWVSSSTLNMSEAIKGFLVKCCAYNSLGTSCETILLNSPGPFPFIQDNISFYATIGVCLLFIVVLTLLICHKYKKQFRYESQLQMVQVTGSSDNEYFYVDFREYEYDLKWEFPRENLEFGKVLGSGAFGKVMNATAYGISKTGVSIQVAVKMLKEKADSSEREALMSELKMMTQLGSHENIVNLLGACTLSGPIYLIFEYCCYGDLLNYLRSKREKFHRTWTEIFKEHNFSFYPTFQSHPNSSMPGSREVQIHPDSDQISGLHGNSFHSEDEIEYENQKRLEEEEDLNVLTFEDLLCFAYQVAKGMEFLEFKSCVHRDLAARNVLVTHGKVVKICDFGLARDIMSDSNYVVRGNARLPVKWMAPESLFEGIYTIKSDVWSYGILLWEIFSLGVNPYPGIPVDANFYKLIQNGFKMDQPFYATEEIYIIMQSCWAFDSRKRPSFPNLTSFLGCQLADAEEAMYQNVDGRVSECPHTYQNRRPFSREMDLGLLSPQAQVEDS", "assay": "FLT3 (Cellular Assay), Ba/F3-FLT3-ITD proliferation", "details": "read-out: IC50 for Flt-3"}, "G250E Bcr-abl": {"molecular_target": "T2, G250E Bcr-abl (Homo sapiens, UniProt P00519, G250E)", "T2 construct": "expressed in transfected cells; host or cells: Ba/F3 murine pro-B cells; the other entry of the earlier key: BCR (P11274, Breakpoint cluster region protein)", "assay": "Proliferation of Ba/F3 cells expressing mutant Bcr-abl G250E", "experimental": "(§1) Ba/F3-p210 cells are plated into 96 well TC plates at a density of 15,000 cells per well. 50 μL of two fold serial dilutions of the test compound (Cmax, is […]) are added to each well (STI571 is included as a positive control). After incubating the cells for 48 hours at 37° C., 5% CO2, 15 μL of MTT (Promega) is added to each well and the cells are incubated for an additional 5 hours. The optical density at 570 nm is quantified spectrophotometrically and IC50 values, the concentration of compound required for 50% inhibition, determined from a dose response curve.\n(§2) Compounds of the invention are tested for their antiproliferative effect on Ba/F3 cells expressing either wild type or the mutant forms of BCR-Abl (G250E, E255V, T315I, F317L, M351T) that confers resistance or diminished sensitivity to STI571. The antiproliferative effect of these compounds on the mutant-BCR-Abl expressing cells and on the non transformed cells were tested as described above. The IC50 values of the compounds lacking toxicity on the untransformed cells were determined from the dose response curves obtained as describe above."}, "wild type Bcr-abl": {"molecular_target": "T3, wild type Bcr-abl (Homo sapiens, UniProt P00519)", "T3 construct": "expressed in transfected cells; host or cells: Ba/F3 murine pro-B cells; the other entry of the earlier key: BCR (P11274, Breakpoint cluster region protein)", "assay": "Proliferation of Ba/F3 cells expressing wild type Bcr-abl", "experimental": "The murine cell line used is the Ba/F3 murine pro-B cell line transformed with BCR-Abl cDNA (Ba/F3-p210). These cells are maintained in RPMI/10% fetal calf serum (RPMI/FCS) supplemented with penicillin 50 μg/mL, streptomycin 50 μg/mL and L-glutamine 200 mM. Untransformed Ba/F3 Ba/F3 cells are similarly maintained with the addition of murine recombinant IL3.\nas §1\nas §2, with “The antiproliferative effect of these compounds on the mutant-BCR-Abl expressing cells and on the non transformed cells were tested as described above.” left out"}, "E255V Bcr-abl": {"molecular_target": "T4, E255V Bcr-abl (Homo sapiens, UniProt P00519, E255V)", "T4 construct": "expressed in transfected cells; host or cells: Ba/F3 murine pro-B cells; the other entry of the earlier key: BCR (P11274, Breakpoint cluster region protein)", "T4 sequence (P00519 229-512 E255V limits assumed)": "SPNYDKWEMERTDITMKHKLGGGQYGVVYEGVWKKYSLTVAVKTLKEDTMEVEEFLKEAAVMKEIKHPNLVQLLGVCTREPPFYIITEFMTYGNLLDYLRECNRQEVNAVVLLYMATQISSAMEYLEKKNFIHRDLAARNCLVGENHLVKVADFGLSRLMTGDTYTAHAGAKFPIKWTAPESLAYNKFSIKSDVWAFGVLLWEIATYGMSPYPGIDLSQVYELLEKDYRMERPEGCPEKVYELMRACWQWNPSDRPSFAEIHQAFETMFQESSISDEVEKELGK", "assay": "Proliferation of Ba/F3 cells expressing mutant Bcr-abl E255V", "experimental": "as §1, §2"}, "M351T Bcr-abl": {"molecular_target": "T5, M351T Bcr-abl (Homo sapiens, UniProt P00519, M351T)", "T5 construct": "expressed in transfected cells; host or cells: Ba/F3 murine pro-B cells; the other entry of the earlier key: BCR (P11274, Breakpoint cluster region protein)", "assay": "Proliferation of Ba/F3 cells expressing mutant Bcr-abl M351T", "experimental": "as §1, §2"}, "T315I Bcr-abl": {"molecular_target": "T6, T315I Bcr-abl (Homo sapiens, UniProt P00519, T315I)", "T6 construct": "expressed in transfected cells; host or cells: Ba/F3 murine pro-B cells; the other entry of the earlier key: BCR (P11274, Breakpoint cluster region protein)", "assay": "Proliferation of Ba/F3 cells expressing mutant Bcr-abl T315I", "experimental": "as §1, §2"}, "F317L Bcr-abl": {"molecular_target": "T7, F317L Bcr-abl (Homo sapiens, UniProt P00519, F317L)", "T7 construct": "expressed in transfected cells; host or cells: Ba/F3 murine pro-B cells; the other entry of the earlier key: BCR (P11274, Breakpoint cluster region protein)", "assay": "Proliferation of Ba/F3 cells expressing mutant Bcr-abl F317L", "experimental": "as §1, §2"}, "PDGFRβ": {"molecular_target": "T8, PDGFRβ (Homo sapiens, UniProt P09619)", "T8 construct": "fused on or other part: P41212 (Transcription factor ETV6)", "T8 sequence (P09619 600-962 limits assumed, change not shown)": "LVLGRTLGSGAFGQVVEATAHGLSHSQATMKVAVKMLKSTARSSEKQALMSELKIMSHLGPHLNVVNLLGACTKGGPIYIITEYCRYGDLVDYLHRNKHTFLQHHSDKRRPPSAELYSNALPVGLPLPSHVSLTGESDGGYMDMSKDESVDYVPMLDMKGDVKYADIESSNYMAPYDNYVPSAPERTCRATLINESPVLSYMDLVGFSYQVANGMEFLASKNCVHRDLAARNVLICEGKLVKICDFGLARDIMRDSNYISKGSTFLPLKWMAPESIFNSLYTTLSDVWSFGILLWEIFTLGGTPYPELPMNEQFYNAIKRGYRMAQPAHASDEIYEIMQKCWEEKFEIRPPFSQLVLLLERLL", "assay": "PDGFRβ (Cellular Assay), Ba/F3-Tel-PDGFRβ proliferation", "details": "read-out: IC50 for PDGFRβ"}}}
{"smiles": "Cc1cn(-c2cc(C(=O)Nc3ccc(C)c(NC(=O)c4cnc(NCCO)s4)c3)cc(C(F)(F)F)c2)cn1", "note": "[Compound 5, 2-(2-Hydroxy-ethylamino)-thiazole-5-carboxylic acid {2-methyl-5-[3-(4-methyl-imidazol-1-yl)-5-trifluoromethyl-benzoylamino]-phenyl}-amide]", "values": [{"measurement": "GI50", "setting": "Flt-3", "result": 41, "unit": "nM"}]}
{"smiles": "CCN1CCN(c2cc(Nc3ncc(C(=O)Nc4cc(NC(=O)c5cccc(C(F)(F)F)c5)ccc4C)s3)nc(C)n2)CC1", "note": "[Example 8, 2-[6-(4-ethyl-piperazin-1-yl)-2-methyl-pyrimidin-4-ylamino]-thiazole-5-carboxylic acid [2-methyl-5-(3-trifluoromethyl-benzoylamino)-phenyl]-amide]", "values": [{"measurement": "IC50", "setting": "G250E Bcr-abl", "result": 2290, "unit": "nM"}, {"measurement": "IC50", "setting": "wild type Bcr-abl", "result": 5, "unit": "nM"}, {"measurement": "IC50", "setting": "E255V Bcr-abl", "result": 12, "unit": "nM"}, {"measurement": "IC50", "setting": "M351T Bcr-abl", "result": 5, "unit": "nM"}, {"measurement": "IC50", "setting": "T315I Bcr-abl", "result": 1270, "unit": "nM"}, {"measurement": "IC50", "setting": "F317L Bcr-abl", "result": 5, "unit": "nM"}]}
{"smiles": "Cc1cn(-c2cc(C(=O)Nc3ccc(C)c(NC(=O)c4cnc(Nc5cc(N6CCOCC6)nc(C)n5)s4)c3)cc(C(F)(F)F)c2)cn1", "note": "[Example 28, 2-(2-methyl-6-morpholin-4-yl-pyrimidin-4-ylamino)-thiazole-5-carboxylic acid {2-methyl-5-[3-(4-methyl-imidazol-1-yl)-5-trifluoromethyl-benzoylamino]-phenyl}-amide]", "values": [{"measurement": "GI50", "setting": "PDGFRβ", "result": 5, "unit": "nM"}]}
{"smiles": "CCN1CCN(c2cc(Nc3ncc(C(=O)Nc4cc(NC(=O)c5cc(-n6cnc(C)c6)cc(C(F)(F)F)c5)ccc4C)s3)nc(C)n2)CC1", "note": "[Example 29, 2-[6-(4-ethyl-piperazin-1-yl)-2-methyl-pyrimidin-4-ylamino]-thiazole-5-carboxylic acid {2-methyl-5-[3-(4-methyl-imidazol-1-yl)-5-trifluoromethyl-benzoylamino]-phenyl}-amide]", "values": [{"measurement": "IC50", "setting": "wild type Bcr-abl", "result": 8, "unit": "nM"}, {"measurement": "IC50", "setting": "T315I Bcr-abl", "result": 570, "unit": "nM"}]}
